Laboratory results published in patent publication US20090324500A1, “SCREEN FOR INFLAMMATORY RESPONSE MODULATORS” (priority 2006, published 2009).

Tested on: neutrophils
Assay: Tail transection injury in transgenic MPO:GFP zebrafish larvae, neutrophil counts at the site of injury
Type: in vivo
Description: AB strain zebrafish from existing aquarium stocks were maintained according to standard protocols. A BAC containing approx 130 kB of 5′ promoter sequence to the MPO gene was identified (zC91B8). This BAC was modified to contain an in-frame GFP sequence beginning at the translation start site of the MPO gene by recombinase activity as previously described (Lee, E. C. et al (2001) Genomics 73, 56-65). EL250 cells required for the recombination step were a kind gift of Dr. Neal Copeland, National Cancer Institute, Frederick, […]., USA. Insertion of the GFP sequence was confirmed by co-insertion of a kanamycin resistance gene, which in turn was flanked by FRT sites leading to its easy removal before introduction into the zebrafish. As part of this process a vector was created consisting of a truncated portion of the Bluescript vector, into which we had blunt cloned a construct consisting of GFP and the FRT-flanked Kanamycin resistance gene, all of which was flanked by MPO homology arms. Using this construct, we were able to add a Nuclear Localising Sequence corresponding to that used in the Clontech vector pEYFPnuc by PCR and self ligation.
The modified BACs were injected into fertilised AB zebrafish embryos at the 1-2 cell stage, and larvae screened at 36-48 hours for the presence of fluorescence. Fluorescent larvae were grown to maturity and either in- or out-crossed to identify germ cell carriage of the transgene.
A BAC containing over 100 kb of sequence 5′ to the Zebrafish MPO promoter was identified and modified to contain an in frame GFP sequence (FIG. 3). This was then injected into zebrafish embryos at the 1-cell stage and a transgenic line created. GFP expression recapitulates the expression of myeloperoxidase in cells whose morphology is consistent with neutrophil granulocytes (see FIG. 4). When these fish are injured, neutrophils accumulate at the site of injury over time (FIGS. 5 and 6).
Neutrophil number at the site of injury following tail transection can be assessed either by manual counting (FIG. 7a) or by automated image analysis (FIG. 7b).
Manipulation of the inflammatory response in transgenic zebrafish has been performed exemplifying the role of manipulation of granulocyte apoptosis in regulating the resolution of inflammation. […] P<0.05 for t=24, zVD.fmk treated vs all other groups (1 way ANOVA with Bonferroni post test correction).
In FIG. 8b counts of fluorescent cells in individual larvae were performed for fish in the presence or absence of the bacterial product Lipopolysaccharide (LPS). LPS was added at 6 hours post injury (hpi), and counts made at 6 and 24 hpi. […] In FIG. 8c, Pyocyanin (a bacterial pigment with pro-apoptotic effects on neutrophils) was added at 4 hpi, and counts made at 8 hpi.

Compound: Cn1c2cccc(=O)c-2nc2ccccc21 [Pyocyanin]
- absolute cell counts (neutrophil numbers) (added at 4 hpi, counts at 8 hpi, FIG. 8c): reduce neutrophil numbers

Compound: CC(C)[C@H](NC(=O)OCc1ccccc1)C(=O)NC(CC(=O)O)C(=O)CF (stereo partly shown) [zVD.fmk]
- neutrophil numbers at the inflammatory site (resolution of inflammation) (between 6 hours and 24 hours after injury, FIG. 8a, P<0.05 at t=24 vs all other groups): persistence of neutrophil numbers
- effect on granulocyte apoptosis (transgenic zebrafish, FIG. 8a): delays apoptosis

Compound: Lipopolysaccharide [LPS]
- % reduction in neutrophil numbers (added at 6 hpi, counts at 6 and 24 hpi, vs untreated fish, p<0.05, FIG. 8b): significantly lower
